Data taken from US11846638B2, “Methods for detecting Na/K-ATPase-mediated Src signaling for diagnosis and prognosis of cancer” (Marshall University Research Corporation, priority 2017, dated 2023).
“Also recorded” adds a separate entry of the source.

Columns and labels:
AAC-19 and Y260A cells [1] = test: Cellular ATP content (CellTiter-Glo) under glycolysis inhibition; assay type: cell-based, porcine; conditions: Y260A cells compared to AAC-19 cells; 2-DG 45 minutes in serum-free DMEM
Protocol: (§1) Biochemical measurement of ATP and lactate. ATP measurements were performed using CellTiter-Glo Luminescent Cell Viability Assay kit. 10,000 cells per well were cultured in 96-well culture plate. After treatment with 2-DG at indicated concentrations in serum-free DMEM for 45 minutes, assay reagents were reconstituted and added into culture plate. Luminescent counts of the reactants were determined from an opaque-walled 96-well plate with a microplate reader. Lactate measurement was done by colorimetric methods as described by previously. In PP2 study, culture medium containing serum and 5 μM PP2 was replaced in culture dish and collected after 4 hours for measurements.

AAC-19 and Y260A cells [2] = test: Extracellular acidification rate (ECAR), Seahorse, in AAC-19 and Y260A cells; assay type: cell-based, porcine; conditions: for ECAR after oligomycin (maximal capacity of glycolysis): after addition of glucose
Protocol: Bioenergetics. Properties of cellular bioenergetics were characterized using Seahorse XFp Extracellular Flux Analyzer by measuring oxygen consumption rate (OCR) and extracellular acidification rate (ECAR) following the guidelines provided by the manufacturer. Prior to the start of Seahorse assay, optimal FCCP concentration for each cell line was determined by titration studies. Unless indicated otherwise, 10,000 cells per well were seeded with culture medium. Bicarbonate-free medium (Agilent Technologies) with different substrates (10 mM glucose, 2 mM glutamine and 1 mM pyruvate for Cell Mito Stress Test assays; 2 mM glutamine for Glycolysis Stress Test assays) was replaced one hour prior to the assay. Baseline OCR and ECAR rates were measured three times before various inhibitors, stimulants, substrates, or compounds were added through the drug delivery ports. In the PP2 study, cells were pretreated with 5 μM PP2 for 4 h and then analyzed.

ERK1/2 = test: ERK activation (pERK1/2/ERK1/2) by Western blot in AAC-19 and Y260A cells; assay type: cell-based, porcine; conditions: for ERK phosphorylation (pERK1/2/ERK1/2): different concentrations of ouabain for 10 minutes
Protocol: (§2) Cell culture and cell line generation. All cell lines were purchased from and maintained according to ATCC (Manassas, Va.). LLC-PK1 was serum starved before being used for signaling experiments. AAC-19, Y260A and DU145, A4-7 cell lines were cultured in the presence of 0.5% and 1% serum respectively for 24 hours before being used for the signaling experiments. LLC-PK1 cells were transfected (Lipofectamine 2000) with pEYFP-C1 vector containing α1 CD2, α2 CD2 or pEYFP-C1 empty vector. After verifying YFP expression visually, the cells were selected with 1 mg/ml G418 for one week. G418 resistant clones were selected and expanded. Cells were then cultured without G418 for at least three generations before being used for experiments. CD2N and CD2C cells were generated in similar manner. Y260A cells were generated by transfecting PY-17 cells with pRC/CMV-α1 AACm1 vector harboring mutation at Y260 and selected with ouabain (3 μM). Ouabain-resistant clones were isolated and expanded into stable cell lines. The cells were cultured for at least 3 generations without ouabain before being used for any experiment. DU-P1, A4-7 and A4-3 cell lines were generated by transfecting DU145 cells with a α1 Na/K-ATPase-specific siRNA containing vector and selecting with Puromycin as described above. All constructs were verified by DNA sequencing.
(§3) Immunoblot, Immunoprecipitation and Immunostaining Analysis. Immunoblot assays were performed as described previously. Intensity of bands were quantified with ImageJ software (NIH). Immunoprecipitation was performed by adding 5 μg of anti-Src (Millipore Cat #05-184) antibody to 500 μg of cell lysate (1 μg/μl concentration) or 8 μg of anti-α1 Na/K-ATPase antibody (Millipore Cat #06-520) to 800 μg of cell lysate ([…] concentration). Precipitated proteins were then analyzed as described previously. For immunostaining antibodies used—anti-α1 Na/K-ATPase antibody (Millipore Cat #05-369) and Alexa Fluor 488-conjugated anti-mouse secondary antibody.

[3] = test system: α1 Na/K-ATPase Y10 phosphorylation; test: Y10 phosphorylation of α1 Na/K-ATPase in LLC-PK1 cells (immunoblot); assay type: cell-based, porcine
Protocol: as §2, with “DU-P1, A4-7 and A4-3 cell lines were generated by transfecting DU145 cells with a α1 Na/K-ATPase-specific siRNA containing vector and selecting with Puromycin as described above. All constructs were verified by DNA sequencing.” left out
(§4) Immunoblot, Immunoprecipitation and Immunostaining Analysis. […] Intensity of bands were quantified with ImageJ software (NIH). […] Precipitated proteins were then analyzed as described previously. […]

A4-7 cells [4] = test: Lactate production in medium of A4-7 cells; assay type: cell-based, human; conditions: 5 μM PP2 for 4 h
Protocol: as §1

[5] = test system: α1 Na/K-ATPase Y260 phosphorylation; test: Y260 phosphorylation of α1 Na/K-ATPase in LLC-PK1 cells (immunoblot); assay type: cell-based, porcine
Protocol: as §2, §3

Y260A cells [6] = test: Lactate production in culture medium of Y260A cells; assay type: cell-based, porcine; conditions: 5 μM PP2 for 4 h
Protocol: as §1

Y260A cells [7] = test: qPCR of upregulated metabolic genes in Y260A cells; assay type: cell-based, porcine; conditions: 5 μM PP2 overnight
Description: RNA Extraction, cDNA Synthesis and Quantitative PCR. Total RNA was isolated with the QIAGEN RNeasy Mini Kit. The same amount of total RNA was used for synthesizing first-stand cDNA with the SuperScript III First-Stand Synthesis SuperMix for qRT-PCR (ThermoFisher). The cDNA from each sample was used as a template for the quantitative PCR (Syber green) with Roche LightCycler® 480 Real-Time PCR System. All primers were synthesized by Integrated DNA Technologies (IDT). β-actin was used as internal control.

A4-7 cells [8] = test: Cell proliferation of A4-7 cells; assay type: cell-based, human; conditions: PP2, 48 hours
Protocol: Cell growth assay and MTT assay. Cell growth assay and MTT assay were performed as previously described.

EGFR [9] = test: EGFR activation (pY845 EGFR/EGFR) by Western blot in DU-P1 and A4-7 cells; assay type: cell-based, human; conditions: different concentrations of EGF for 5 minutes
Protocol: as §2, with “DU-P1, A4-7 and A4-3 cell lines were generated by transfecting DU145 cells with a α1 Na/K-ATPase-specific siRNA containing vector and selecting with Puromycin as described above. All constructs were verified by DNA sequencing.” left out
as §4

Src [10] = test: Src activation (pY418Src/c-Src) by Western blot in LLC-PK1, AAC-19 and Y260A cells; assay type: cell-based, porcine; conditions: for Src phosphorylation (pY418Src/c-Src): different concentrations of ouabain for 10 minutes
Protocol: as §2, §3

EGFR [11] = test: EGFR phosphorylation at Y845 in AAC-19 and Y260A cells; assay type: cell-based, porcine; conditions: AAC-19 cells; different concentrations of EGF
Protocol: as §2, with “DU-P1, A4-7 and A4-3 cell lines were generated by transfecting DU145 cells with a α1 Na/K-ATPase-specific siRNA containing vector and selecting with Puromycin as described above. All constructs were verified by DNA sequencing.” left out
as §4

Src [12] = test: Src activation (pY418 Src/c-Src) by Western blot in DU-P1 and A4-7 cells; assay type: cell-based, human; conditions: different concentrations of EGF for 5 minutes
Protocol: as §2, with “DU-P1, A4-7 and A4-3 cell lines were generated by transfecting DU145 cells with a α1 Na/K-ATPase-specific siRNA containing vector and selecting with Puromycin as described above. All constructs were verified by DNA sequencing.” left out
as §4

Akt = Akt activation (pS473Akt/Akt) by Western blot in AAC-19 and Y260A cells; assay type: cell-based, porcine; conditions: different concentrations of ouabain for 10 minutes
Protocol: as §2, with “DU-P1, A4-7 and A4-3 cell lines were generated by transfecting DU145 cells with a α1 Na/K-ATPase-specific siRNA containing vector and selecting with Puromycin as described above. All constructs were verified by DNA sequencing.” left out
as §4

Compound: O=CC[C@@H](O)[C@H](O)[C@H](O)CO [2-DG, 2-deoxyglucose]
- cellular ATP content in response to inhibition of glycolysis (AAC-19 and Y260A cells [1]): much more sensitive
- ECAR after 2-DG (AAC-19 and Y260A cells [2]; AAC-19 and Y260A cells, after glucose and oligomycin): completely reversed the increase

Compound: CC(C)(C)n1nc(-c2ccc(Cl)cc2)c2c(N)ncnc21 [PP2]
- basal ERK activities (increased in Y260A cells) (ERK1/2; Y260A cells, PP2): sensitive to PP2; also recorded: sensitive to Src inhibitor
- Y10 phosphorylation ([3]; PP2 5 μM, 30 minutes): Neither inhibitor nor knockout of Src kinase affected
- lactate production (increased in A4-7 cells) (A4-7 cells [4]): sensitive to Src inhibition
- Y260 phosphorylation ([5]; PP2 5 μM, 30 minutes pretreatment): attenuated
- glycolysis rate (ECAR) (AAC-19 and Y260A cells [2]; Y260A cells, 5 μM PP2 for 4 h): sufficient to reduce
- lactate production (Y260A cells [6]): sufficient to reduce; also recorded: blocked the increase
- mRNA level of upregulated glycolytic/metabolic genes (Y260A cells [7]): restored the mRNA level of most of these upregulated genes; also recorded: reduced the expression
- cell proliferation rate (A4-7 cells [8]): reversed; also recorded: inhibition

Compound: CC[C@H]1/C=C/C=C/C[C@@H](C)[C@H](O)[C@@](C)(O)C(=O)[C@@H](C)[C@H](O)[C@@H](C)C(=O)[C@@H](C)[C@H](O)[C@@H](C)/C=C/C(=O)O[C@@H]2[C@H](C)[C@H](CC1)O[C@]1(CC[C@H](C)[C@H](C[C@@H](C)O)O1)[C@H]2C [oligomycin]
- ECAR after oligomycin (maximal capacity of glycolysis) (AAC-19 and Y260A cells [2]; AAC-19 cells): further increase
- ECAR after oligomycin (maximal capacity of glycolysis) (AAC-19 and Y260A cells [2]; Y260A cells): not in Y260A cells

Compound: EGF: recombinant EGF, stimulates EGFR/Src signaling
- Y845 phosphorylation of EGFR (EGFR [9]; A4-7 cells): not in A4-7 cells
- Y845 phosphorylation of EGFR (EGFR [9]; DU-P1 cells): able to stimulate
- Src kinase activity (Src [10]; AAC-19 cells, different concentrations of EGF): stimulated
- Src phosphorylation at Y418 (Src [10]; LLC-PK1 cells, recombinant EGF, time and dose): time- and dose-dependent stimulation
- phosphorylation of EGFR at Y845 (EGFR [11]): stimulated
- Y260 phosphorylation of Na/K-ATPase ([5]; recombinant EGF, time and dose): time- and dose-dependent stimulation
- Src activation (pY418 Src/c-Src) (Src [12]; A4-7 cells): not in A4-7 cells
- Src activation (pY418 Src/c-Src) (Src [12]; DU-P1 cells): able to stimulate

Compound: C[C@@H]1O[C@@H](O[C@H]2C[C@@H](O)[C@]3(CO)[C@H]4[C@H](O)C[C@]5(C)[C@@H](C6=CC(=O)OC6)CC[C@]5(O)[C@@H]4CC[C@]3(O)C2)[C@H](O)[C@H](O)[C@H]1O [ouabain]
- ERK phosphorylation (pERK1/2/ERK1/2) (ERK1/2; AAC-19 cells): stimulated
- ERK phosphorylation (pERK1/2/ERK1/2) (ERK1/2; Y260A mutant cells): abolished
- ouabain-induced ERK activation (pERK1/2/ERK 1/2) (ERK1/2; Y260A mutant clone 24 cells): failed to respond
- Src phosphorylation (pY418Src/c-Src) (Src [10]; AAC-19 cells): stimulated
- Src phosphorylation (pY418Src/c-Src) (Src [10]; Y260A mutant cells): abolished
- Y10 phosphorylation ([3]; ouabain): no effect
- Y260 phosphorylation ([5]; ouabain, function of time and concentration): increased
- Akt phosphorylation (pS473Akt/Akt) (Akt; AAC-19 cells): stimulated
- Akt phosphorylation (pS473Akt/Akt) (Akt; Y260A mutant cells): abolished
